Key:
[1] = target: T1, Orexin/Hypocretin receptor type 1 (Homo sapiens, UniProt O43613); assay: Antagonist activity at human orexin 1 receptor expressed in HEK293 cells assessed as inhibition of orexin-induced calcium mobilization after 60 mins by FLIPR assay; type: functional, cell-based
T1 sequence (O43613 whole entry): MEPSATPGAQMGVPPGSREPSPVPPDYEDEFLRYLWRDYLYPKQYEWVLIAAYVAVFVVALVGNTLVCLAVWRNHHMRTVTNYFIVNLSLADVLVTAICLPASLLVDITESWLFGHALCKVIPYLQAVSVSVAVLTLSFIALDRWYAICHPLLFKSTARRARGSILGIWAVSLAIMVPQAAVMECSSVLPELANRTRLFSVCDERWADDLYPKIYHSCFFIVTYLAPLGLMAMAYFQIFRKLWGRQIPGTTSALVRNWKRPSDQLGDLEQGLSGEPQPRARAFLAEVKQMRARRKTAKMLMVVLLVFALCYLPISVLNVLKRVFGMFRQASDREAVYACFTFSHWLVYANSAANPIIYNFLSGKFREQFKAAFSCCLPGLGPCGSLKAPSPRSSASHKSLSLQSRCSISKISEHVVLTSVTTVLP

Orexin receptor type 2 = target: T2, Orexin receptor type 2 (Homo sapiens, UniProt O43614); assay: Antagonist activity at human orexin 2 receptor expressed in HEK293 cells assessed as inhibition of orexin-induced calcium mobilization after 60 mins by FLIPR assay; type: functional, cell-based
T2 sequence (O43614 whole entry): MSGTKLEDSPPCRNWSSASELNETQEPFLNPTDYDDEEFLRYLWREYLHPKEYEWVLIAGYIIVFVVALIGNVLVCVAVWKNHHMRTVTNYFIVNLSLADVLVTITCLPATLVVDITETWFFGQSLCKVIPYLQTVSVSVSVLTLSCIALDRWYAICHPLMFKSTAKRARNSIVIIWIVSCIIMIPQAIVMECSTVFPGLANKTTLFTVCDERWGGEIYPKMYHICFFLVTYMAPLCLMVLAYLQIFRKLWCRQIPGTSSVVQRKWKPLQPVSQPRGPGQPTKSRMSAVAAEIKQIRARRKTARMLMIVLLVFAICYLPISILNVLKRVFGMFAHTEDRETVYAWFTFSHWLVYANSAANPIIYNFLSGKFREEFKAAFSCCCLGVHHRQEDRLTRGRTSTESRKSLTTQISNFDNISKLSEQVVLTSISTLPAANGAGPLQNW

[2] = Thermodynamic solubility of the compound in phosphate buffer at pH 7.4 by HPLC method; type: physicochemical; details: read-out: Therm_solubility
[3] = Plasma concentration in Sprague-Dawley rat at 10 mg/kg, po at 0.3 hrs; type: ADME, organism-based
[4] = Plasma concentration in Sprague-Dawley rat at 10 mg/kg, po at 1 hr; type: ADME, organism-based
[5] = Plasma concentration in Sprague-Dawley rat at 10 mg/kg, po at 4 hrs; type: ADME, organism-based
Brain [6] = assay: Drug uptake in Sprague-Dawley rat brain at 10 mg/kg, po at 0.3 hrs; type: ADME, organism-based; details: in vivo
Brain [7] = assay: Drug uptake in Sprague-Dawley rat brain at 10 mg/kg, po at 1 hr; type: ADME, organism-based; details: in vivo
Brain [8] = assay: Drug uptake in Sprague-Dawley rat brain at 10 mg/kg, po at 4 hrs; type: ADME, organism-based; details: in vivo
[9] = Ratio of drug level in brain to plasma in Sprague-Dawley rat at 10 mg/kg, po at 0.5 hrs; type: ADME, organism-based; details: read-out: BPR
[10] = Ratio of drug level in brain to plasma in Sprague-Dawley rat at 10 mg/kg, po at 1 hr; type: ADME, organism-based; details: read-out: BPR
[11] = Ratio of drug level in brain to plasma in Sprague-Dawley rat at 10 mg/kg, po at 4 hrs; type: ADME, organism-based; details: read-out: BPR
[12] = Clearance in Sprague-Dawley rat at 2 mg/kg, iv; type: ADME, organism-based; details: in vivo
[13] = Half life in Sprague-Dawley rat at 2 mg/kg, iv; type: ADME, organism-based; details: in vivo
[14] = AUC in Sprague-Dawley rat at 15 mg/kg, po; type: ADME, organism-based; details: in vivo
[15] = Cmax in Sprague-Dawley rat at 15 mg/kg, po; type: ADME, organism-based; design: dose 15 mg/kg, route oral; details: in vivo
[16] = Tmax in Sprague-Dawley rat at 15 mg/kg, po; type: ADME, organism-based; details: in vivo
[17] = Oral bioavailability in Sprague-Dawley rat at 15 mg/kg; type: ADME, organism-based; details: in vivo
Rattus norvegicus [18] = assay: Sleep promoting activity in Sprague-Dawley rat assessed as decrease in active wake time at 90 mg/kg, po measured over 2 hrs by electroencephalogram method; type: functional
Rattus norvegicus [19] = assay: Sleep promoting activity in Sprague-Dawley rat assessed as effect on rapid eye movement sleep time at 90 mg/kg, po measured over 2 hrs by electroencephalogram method; type: functional
Rattus norvegicus [20] = assay: Sleep promoting activity in Sprague-Dawley rat assessed as increase in slow wave sleep time at 90 mg/kg, po measured over 2 hrs by electroencephalogram method; type: functional
[21] = target: Voltage-gated inwardly rectifying potassium channel KCNH2 (Homo sapiens, UniProt Q12809); assay: Inhibition of human ERG
Chain of Voltage-gated inwardly rectifying potassium channel KCNH2 (Q12809 whole entry): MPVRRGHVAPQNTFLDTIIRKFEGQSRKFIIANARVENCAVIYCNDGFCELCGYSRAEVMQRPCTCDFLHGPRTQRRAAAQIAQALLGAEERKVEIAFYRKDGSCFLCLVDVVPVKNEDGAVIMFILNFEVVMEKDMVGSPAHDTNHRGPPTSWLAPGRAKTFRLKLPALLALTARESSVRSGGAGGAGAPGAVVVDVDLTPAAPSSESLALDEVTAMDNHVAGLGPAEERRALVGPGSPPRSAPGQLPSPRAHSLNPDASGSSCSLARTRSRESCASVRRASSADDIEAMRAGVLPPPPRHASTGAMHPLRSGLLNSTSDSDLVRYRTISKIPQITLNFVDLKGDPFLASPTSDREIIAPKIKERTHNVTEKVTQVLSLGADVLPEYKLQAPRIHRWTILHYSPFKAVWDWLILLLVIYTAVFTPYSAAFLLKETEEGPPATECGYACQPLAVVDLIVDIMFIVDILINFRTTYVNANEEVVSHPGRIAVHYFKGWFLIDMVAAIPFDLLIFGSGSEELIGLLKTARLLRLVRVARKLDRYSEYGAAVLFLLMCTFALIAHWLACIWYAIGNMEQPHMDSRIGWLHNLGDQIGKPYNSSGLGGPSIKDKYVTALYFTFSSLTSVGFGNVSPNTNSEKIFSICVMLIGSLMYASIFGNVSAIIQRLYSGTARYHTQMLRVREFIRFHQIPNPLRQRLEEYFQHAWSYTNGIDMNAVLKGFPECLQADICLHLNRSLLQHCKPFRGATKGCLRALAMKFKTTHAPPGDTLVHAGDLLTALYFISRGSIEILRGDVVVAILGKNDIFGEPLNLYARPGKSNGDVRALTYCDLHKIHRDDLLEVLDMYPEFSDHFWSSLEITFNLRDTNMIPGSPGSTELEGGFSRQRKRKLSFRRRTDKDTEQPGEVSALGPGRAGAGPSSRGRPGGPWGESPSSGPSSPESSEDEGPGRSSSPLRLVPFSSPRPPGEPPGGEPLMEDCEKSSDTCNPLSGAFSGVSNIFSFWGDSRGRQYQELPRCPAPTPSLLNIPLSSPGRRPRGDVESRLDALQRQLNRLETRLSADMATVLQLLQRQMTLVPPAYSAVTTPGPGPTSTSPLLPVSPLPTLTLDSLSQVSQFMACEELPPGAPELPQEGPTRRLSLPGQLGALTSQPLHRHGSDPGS

Q: Which IC50 [1] does the source give for `O=C(c1ccccc1-n1nccn1)N1C[C@@H]2CN(c3nc4cc(Cl)ccc4o3)C[C@@H]2C1` here?
A: The IC50 was 489 nM.

Q: What about the IC50 (Orexin receptor type 2) of the same compound?
A: The IC50 was 238 nM.

Q: What does the source list for `Cc1ccc(-n2nccn2)c(C(=O)N2C[C@@H]3CN(c4nc(-c5cccc(Cl)c5)co4)C[C@@H]3C2)c1`?
A: IC50 [1]: 1010 nM; IC50 (Orexin receptor type 2): 2790 nM

Q: For `Cc1ccc(-n2nccn2)c(C(=O)N2C[C@@]3(C)CN(c4nc5cc(Cl)ccc5o4)C[C@@]3(C)C2)c1`, which IC50 [1] is on record?
A: Its IC50 is 1890 nM.

Q: What about the IC50 (Orexin receptor type 2) of the same compound?
A: Its IC50 is 5990 nM.

Q: What does the source list for `Cc1ccc(-n2nccn2)c(C(=O)N2C[C@@H]3CN(c4ncnc5ccccc45)C[C@@H]3C2)c1`?
A: IC50 [1]: > 10000 nM; IC50 (Orexin receptor type 2): 1680 nM

Q: For `Cc1ccc(-n2nccn2)c(C(=O)N2CCCC3CN(c4nc5cc(Cl)ccc5o4)CC32)c1` (stereo not drawn), which IC50 [1] is on record?
A: The IC50 was over 10000 nM.

Q: What about the IC50 (Orexin receptor type 2) of the same compound?
A: The IC50 was over 10000 nM.

Q: What does the source list for `Cc1ccc(-n2nccn2)c(C(=O)N2C[C@@H]3CN(c4nc5cc(Cl)ccc5s4)C[C@@H]3C2)c1`?
A: IC50 [1]: 327 nM; IC50 (Orexin receptor type 2): 1190 nM

Q: With `COc1ccc2oc(N3C[C@H]4CN(C(=O)c5cc(C)ccc5-n5nccn5)C[C@H]4C3)nc2c1` as the compound, how does the IC50 [1] read?
A: The IC50 was 401 nM.

Q: What about the IC50 (Orexin receptor type 2) of the same compound?
A: Its IC50 is 311 nM.

Q: For `Cc1ccc(-n2nccn2)c(C(=O)N2C[C@@H]3CN(c4nc5cc(Cl)ccc5o4)C[C@@H]3C2)c1`, which IC50 [1] is on record?
A: Its IC50 is 226 nM.

Q: What about the IC50 (Orexin receptor type 2) of the same compound?
A: The IC50 was 206 nM.

Q: What about the solubility thermodynamic [2] of the same compound?
A: Its solubility thermodynamic is under 2 µM.

Q: And the concentration at 0.3 h [3]?
A: The concentration at 0.3 h was 3370 nM.

Q: What about the concentration at 1 h [4] of the same compound?
A: Its concentration at 1 h is 2500 nM.

Q: And the concentration at 4 h [5]?
A: Its concentration at 4 h is 409 nM.

Q: What about the Drug uptake (Brain [6]) of the same compound?
A: The Drug uptake was 643 nmol/kg.

Q: And the Drug uptake (Brain [7])?
A: Its Drug uptake is 376 nmol/kg.

Q: What about the Drug uptake (Brain [8]) of the same compound?
A: The Drug uptake was 111 nmol/kg.

Q: And the Kp at 0.5 h [9]?
A: The Kp at 0.5 h was 0.19.

Q: And the Kp at 1 h [10]?
A: The Kp at 1 h was 0.15.

Q: And the Kp at 4 h [11]?
A: The Kp at 4 h was 0.27.

Q: And the clearance [12]?
A: The clearance was 32 mL/min/kg.

Q: And the half-life [13]?
A: Its half-life is 43.8 min.

Q: And the AUC [14]?
A: The AUC was 5.4 µM·h.

Q: What about the Cmax [15] of the same compound?
A: The Cmax was 2100 nM.

Q: And the Tmax [16]?
A: Its Tmax is 25.2 min.

Q: And the bioavailability [17]?
A: The bioavailability was 27%.

Q: With `Cc1ccc(-n2nccn2)c(C(=O)N2CC3CCN(c4nc5cc(Cl)ccc5o4)C3C2)c1` (stereo not drawn) as the compound, how does the IC50 [1] read?
A: The IC50 was over 10000 nM.

Q: What about the IC50 (Orexin receptor type 2) of the same compound?
A: Its IC50 is over 10000 nM.

Q: With `Cc1ccc(-n2nccn2)c(C(=O)N2CC3CN(c4nc5cc(Cl)ccc5o4)CC3(C)C2)c1` (stereo not drawn) as the compound, how does the IC50 [1] read?
A: The IC50 was 736 nM.

Q: What about the IC50 (Orexin receptor type 2) of the same compound?
A: Its IC50 is 1090 nM.

Q: What does the source list for `Cc1ccc(-n2nccn2)c(C(=O)N2CCN(c3nc4cc(Cl)ccc4o3)CC[C@H]2C)c1` [SUVOREXANT]?
A: Time (Rattus norvegicus [18]): 46.9 min; Time (Rattus norvegicus [19]): 13.6 min; Time (Rattus norvegicus [20]): 33.5 min

Q: With `Cc1ccc(-n2nccn2)c(C(=O)N2C[C@@]3(F)CN(c4nc5cc(Cl)ccc5o4)C[C@@]3(F)C2)c1` as the compound, how does the IC50 [1] read?
A: The IC50 was 759 nM.

Q: And the IC50 (Orexin receptor type 2)?
A: The IC50 was 639 nM.

Q: And the IC50 [21]?
A: Its IC50 is over 30000 nM.

Q: What does the source list for `Cc1ccc(-n2nccn2)c(C(=O)N2CCC3CN(c4nc5cc(Cl)ccc5o4)CC32)c1` (stereo not drawn)?
A: IC50 [1]: 2970 nM; IC50 (Orexin receptor type 2): 354 nM

Q: Which IC50 [1] does the source give for `Cc1ccc(-n2nccn2)c(C(=O)N2C[C@@H]3CN(c4nc5cc(C(F)(F)F)ccc5o4)C[C@@H]3C2)c1` here?
A: Its IC50 is 1780 nM.

Q: And the IC50 (Orexin receptor type 2)?
A: Its IC50 is 508 nM.

Q: Which IC50 [1] does the source give for `Cc1ccc(-n2nccn2)c(C(=O)N2C[C@H]3CN(Cc4nc5cc(Cl)ccc5o4)C[C@H]3C2)c1` here?
A: The IC50 was 3240 nM.

Q: And the IC50 (Orexin receptor type 2)?
A: Its IC50 is 1820 nM.
